Measurements published in the OPERA property sets (Mansouri et al. 2018).

Settings: not given

Structure (SMILES) | boiling point [°C] | melting point [°C] | ready biodegradability | log10 vapour pressure (mmHg) | log10 Koa | log10 Henry constant (atm·m³/mol) | log10 Koc (L/kg)
N#CSc1ccccc1 | 232 | – | – | – | – | – | –
O=S(O)c1ccc(Cl)cc1 | – | 99 | – | – | – | – | –
COC(=O)c1ccccc1C(=O)O | – | 83 | – | – | – | – | –
CC1(C)CC(C)(c2ccccc2)c2ccccc21 (centres undefined) | 308 | 52.5 | – | – | – | – | –
C[Si]1(c2ccccc2)O[Si](C)(c2ccccc2)O[Si](C)(c2ccccc2)O[Si](C)(c2ccccc2)O1 (centres undefined) | – | 99 | – | – | – | – | –
CCC(=O)C(=O)O | – | 33 | – | – | – | – | –
CC(=O)c1ccccc1Cl | – | – | not readily biodegradable | – | – | – | –
CCO/N=C(\OC(=O)c1ccccc1)c1c(OC)ccc(Cl)c1OC | – | 73 | – | – | – | – | –
Ic1cccs1 | 181 | -40 | – | 0.906 | – | – | –
Cc1cccc(NC(=O)c2ccccc2)c1 | – | 125 | – | – | – | – | –
CCOC(=O)C(C)(C)C | 118 | -89.5 | – | 1.25 | – | – | –
COc1cc(CCN)cc(OC)c1OC | – | 35.5 | – | – | – | – | –
C[Si](C)(F)c1ccccc1 | – | – | – | 0.463 | – | – | –
NCc1ccccc1 | 185 | – | readily biodegradable | -0.185 | – | – | –
CCCCCCCC/C=C\CCCCCCCCO | – | – | readily biodegradable | – | – | – | –
O=C(O)CCI | – | 81.5 | – | – | – | – | –
CN(C1CCCCC1)C1CCCCC1 | 265 | – | – | – | – | – | –
Cc1ccc2c(C)cccc2c1 | 264 | -16.9 | – | -1.84 | – | – | –
O=C(NC(=O)c1c(F)cccc1F)Nc1ccc(Cl)c(Oc2ncc(C(F)(F)F)cc2Cl)c1 | – | – | – | -12 | – | – | –
CC(=O)OC1CC(C)OC(C)O1 (centres undefined) | – | – | readily biodegradable | – | – | – | –

Structure (SMILES) | boiling point [°C] | melting point [°C] | ready biodegradability | log10 vapour pressure (mmHg) | log10 Koa | log10 Henry constant (atm·m³/mol) | log10 Koc (L/kg)
CC(C)C(O)(c1ccc(OC(F)(F)F)cc1)c1cncnc1 (centres undefined) | 264 | 95 | – | -6.44 | – | – | –
OCC(O)CCl (centres undefined) | – | – | readily biodegradable | -0.699 | – | – | –
COCCC(C)C | 91 | – | – | – | – | – | –
CCCCCCCCCCCC(=O)c1ccccc1 | – | 47 | – | – | – | – | –
NCCc1c[nH]c2ccccc12 | – | 118 | – | – | – | – | –
CN(C)c1cccc([N+](=O)[O-])c1 | 282 | 60.5 | – | – | – | – | –
O=C1OC(c2ccccc2)(c2ccccc2)c2ccccc21 | – | 120 | – | – | – | – | –
CCC1(c2ccc(N)cc2)CCC(=O)NC1=O (centres undefined) | – | 150 | – | – | – | – | –
Cc1cccc(C)c1Cl | 186 | -35 | – | – | – | – | –
CCCCCCC#CC(=O)O | – | -8 | – | – | – | – | –
CC(C)COCC(C)C | 123 | – | – | 1.19 | 3.4 | – | –
C=CC=C(C)C | 76.5 | – | – | – | – | – | –
COc1cc2ccc(=O)oc2cc1O | – | 204 | – | – | – | – | –
CCCCc1ccc(C(=O)O)cc1 | – | 106 | – | – | – | – | –
O=C(c1ccccc1O)N1CCOCC1 | – | 175 | – | – | – | – | –
FC(F)C(F)Cl (centres undefined) | 17 | – | – | – | – | – | –
CCOC(C)OCC | 102 | -100 | – | 1.44 | – | – | –
CCCCCCCOCC | 166 | -68.3 | – | – | – | – | –
CC[C@@H](CO)NC(=O)[C@@H]1C=C2c3cccc4c3c(cn4C)C[C@H]2N(C)C1 | – | 195 | – | – | – | – | –
O=[N+]([O-])c1ccc2cccnc2c1 | – | 132 | – | – | – | – | –

Structure (SMILES) | boiling point [°C] | melting point [°C] | ready biodegradability | log10 vapour pressure (mmHg) | log10 Koa | log10 Henry constant (atm·m³/mol) | log10 Koc (L/kg)
CCCCCON=O | 104 | – | – | 0.598 | – | – | –
Clc1cc(Cl)c(Cl)c(-c2c(Cl)c(Cl)c(Cl)c(Cl)c2Cl)c1 | – | – | – | – | – | -4.85 | –
O=C1c2ccccc2C(=O)c2c1cc(O)c(O)c2O | – | 313 | – | – | – | – | –
CCCCCC(C=O)=Cc1ccccc1 | – | 80 | readily biodegradable | – | – | – | –
ClC(Br)Br | 120 | -20 | not readily biodegradable | – | 3.59 | -3.11 | 1.92
CCCCCC(C)(C)O | 156 | -50.4 | – | – | – | – | –
c1cc2c3c(c4ccc5ccccc5c4cc3c1)CC2 | – | 174 | – | – | – | – | –
Cn1nc2ccc(NC(=O)c3ccccc3)cc2n1 | – | 166 | – | – | – | – | –
COc1nc2c(c(=O)n(C)c(=O)n2C)n1C | – | 176 | – | – | – | – | –
O=[N+]([O-])c1ccc(Nc2ccc(O)cc2)c([N+](=O)[O-])c1 | – | 194 | – | -11.4 | – | – | –
O=C(O)c1cccc(Cl)c1Cl | – | 169 | – | -3.64 | – | – | –
Oc1ccccc1Cl | 175 | 9.8 | not readily biodegradable | 0.403 | – | -4.95 | 2.6
CC(C)(C(=O)O)n1nnc2ccccc21 | – | 182 | – | – | – | – | –
COc1ccc(Br)cc1 | 215 | 13.5 | – | -0.692 | – | – | –
FC(F)(F)CCl | 6.1 | -106 | – | – | – | – | –
CC(C)CCSCCC(C)C | 211 | -74.6 | – | -0.497 | – | – | –
C=C(Cl)CC | 58.5 | – | – | – | – | – | –
CCCCCCC(C)O (racemic) | 179 | 3.5 | – | – | – | – | –
C/C=C(/C)C(C)C | 89.9 | -121 | – | – | – | – | –

Same assay, conditions: fish

Structure (SMILES) | log10 BCF | log10 biotransformation half-life (days)
CCCCCCc1ccc(-c2ccc(C#N)cc2)cc1 | 3.52 | 0.85
Clc1cc(Cl)cc(Cl)c1 | 2.97 | 1.19
Brc1cc(Oc2c(Br)c(Br)c(Br)c(Br)c2Br)c(Br)c(Br)c1Br | 5.44 | –
CC(C)(C)c1ccc(O)c(C(C)(C)C)c1 | 2.4 | -0.37
Oc1ccccc1Cl | 1.35 | -0.38
